The source of these data is patent US6306613A, “Modulators of leaderless protein export and methods for identifying and using the same” (Ciblex Corporation, priority 1999, dated 2001).

The subject of experiment [1] is export of 18 kD FGF-2 from COS cells. Conditions: 25 μg/ml in chase medium; cited from earlier work.
The subject of experiment [2] is secretion of hCG-α from COS cells. Conditions: cited from earlier work.
Experiment [3] concerns export of 18 kD FGF-2 from COS cells. The experiment in a line: FGF-2 export from transfected COS cells, pulse-chase and immunoprecipitation. It is filed as cell-based. The conditions noted are these: for inhibition of export of FGF-2 / IC50: COS cells; for inhibition of export of FGF-2: 10 nM to 1 mM in chase; for IC50: FGF-2 export, modulator in chase medium, read-out: concentration that inhibits 50% of leaderless protein export. The procedure:
For an immunoprecipitation assay after transfection, the COS cells are metabolically pulse-labeled for 15 minutes with 100 μCi of ^35 S-methionine and ^35 S-cysteine (Trans ^35 S-label, ICN Biomedicals, Irvine, Calif.) in 1 ml of methionine and cysteine free DMEM. Following labeling, the cell monolayers are washed once with DMEM supplemented with excess (10 mM) unlabeled methionine and cysteine for 1-2 minutes. Cells are then cultured in 2 ml of this medium for the indicated lengths of time and the cell supernatants are immunoprecipitated for the presence of leaderless protein. For the indicated cultures, chase medium is supplemented with modulator at the indicated concentrations.
COS cells are cultured in Dulbecco's Modified Eagle Medium (DMEM, University of California San Diego Core Facility) supplemented with 10% fetal bovine serum (Gemini Bioproducts, Inc.), 2 mM L-glutamine, 1 mM sodium pyruvate, 0.1 mM non-essential amino acids, 100 units/ml penicillin, and 100 units/ml streptomycin. An SV-40-based expression vector containing the wild type (human) cDNA encoding multiple FGF-2 isoforms (24, 23, 22 and 18-kD) has been described previously (Florkiewiczand Sommer, supra). Approximately 3×10^5 COS cells in a 60 mm tissue culture dish are transfected with 10 μg of CsCl-purified plasmid DNA mixed with 1.0 ml of transfection buffer (140 mM NaCl, 3 mM KCl, 1 mM CaC'2, 0.5 mM MgCl2, 0.9 mM Na2 HPO4, 25 mM Tris pH 7.4; all from Sigma Chemical Company, Stl. Louis, Mo.). Under these co-transfection conditions using 2 μg of p18dx plus 10 μg pMAMneo, greater than 70% of transfected cells express both proteins, as determined by immunofluorescence microscopy. The ratio of plasmid DNA may be varied with an insignificant change in results. Forty to 48 hours post-DNA transfection COS cells are metabolically pulse-labeled for 15 minutes with 100 μCi of ^35 S-methionine and ^35 S-cysteine (Trans^35 S-label, ICN Biomedicals, Inc.) in 1.0 ml of methionine-and cysteine-free DMEM. After pulse-labeling, the cell monolayers are washed once with DMEM supplemented with excess (10 mM) unlabeled methionine and cysteine (Sigma Chemical Company) and then cultured in 1.0 ml of the same medium (chase) for the indicated lengths of time. Cultures treated with brefeldin A include 15 μg/ml of brefeldin A in the chase medium. Chase medium is also supplemented with 25 μg/ml heparin (Sigma Chemical Company). Although heparin is not necessary to qualitatively detect FGF-2 export, it is necessary in order to quantitatively detect the export of FGF-2 in this assay.
Cell and medium fractions are prepared for immunoprecipitation essentially as described previously (Florkiewicz et al., 1991) except that 400 μl of lysis buffer without NaCl (1% NP-40, 0.5% deoxycholate, 20 mM Tris pH 7.5, 5 mM EDTA, 2 mM EGTA, 0.01 mM phenylinethylsufonyl fluoride, 10 ng/ml aprotiniul, 10 ng/ml leupeptin, and 10 ng/ml pepstatin) is added to the medium fraction clarified by microfuge centrifugation for 15 minutes at 4° C. before adding immune serum. Both cell and medium fractions are incubated with a 1:200 dilution of guinea pig anti-FGF-2 immune serum (prepared in our laboratory) at 21° C. for 40 minutes and then GammaBind G Sepharose® (Pharmacia LKB Biotechnology) is added for an additional 30 minute incubation. […]

Experiment [4] has as its system secretion of hCG-α from COS cells. The experiment in a line: hCG-α secretion from transfected COS cells (leader sequence control). It is filed as cell-based. The protocol:
An expression vector encoding hCG-cc (Guan et al., J. Biol. Chem. 263:5306-5313, 1988), which has a signal sequence, is used as a control to monitor proteins trafficked through the ER/Golgi.
COS cells are co-transfected as described above with plasmids expressing FGF-2, hCG-α, or neomycin phosphotransferase. Metabolic labeling is performed as described above, except that during the chase period, modulator that inhibits export is added at 10 nM to 1 mM in log increments. At the end of the chase, cells and cell media are harvested and processed for immune precipitations as described above.

For experiment [5], the system named is FGF-2 export from Na+/K+ ATPase α1 co-transfected COS cells. In words: FGF-2 export from COS cells co-transfected with rat Na+/K+ ATPase α1. The conditions noted are these: twenty-four hours post labeling. Format: cell-based.
In experiment [6] the test system is IL-1α export from COS cells. The experiment in a line: IL-1α export from transfected COS cells. It is filed as cell-based. The conditions noted are these: 5 mM. An excerpt: A vector containing a leaderless protein gene. IL-1α, is transfected into COS cells. Cells are metabolically labeled and protein precipitated with anti-IL-1α antibody. […] In contrast to the export of FGF-2, the rate of IL-1 export is slower, having a T1/2 of greater than 24 hrs. […] In addition, IL-1α can be immunoprecipitated from co-transfected COS cells (transfected with IL-1α and the Na/K ATPase α1 subunit) using anti-α1 subunit antibody (FIG. 4).

Experiment [7] concerns VSV N protein export from COS cells. It is filed as cell-based.
Experiment [8] concerns export of FPT (FGF-2 neomycin phosphotransferase chimeric protein) from COS cells. The experiment in a line: Export of FPT chimera from COS cells. It is filed as cell-based.
For experiment [9], the system named is export of F-gal (FGF-2 β-gal chimeric protein) from COS cells. In words: Export of F-gal chimera from COS cells. It is filed as cell-based.
Experiment [10] relates to export of FGF-2 mutein Arg118Ile from COS cells. In words: FGF-2 mutein export with ouabain, Arg118Ile. It is filed as cell-based.
Experiment [11] concerns export of FGF-2 mutein Lys144Val (K144V) from COS cells. In words: FGF-2 mutein export with ouabain, Lys144Val. Format: cell-based.
Experiment [12] deals with export of FGF-2 mutein Arg53Trp (R53W) from COS cells. The experiment in a line: FGF-2 mutein export with ouabain, Arg53Trp. It is filed as cell-based.
For experiment [13], the system named is export of FGF-2 mutein Lys134Thr (K134T) from COS cells. The experiment in a line: FGF-2 mutein export with ouabain, Lys134Thr. It is filed as cell-based.
Experiment [14] has as its system export of FGF-2 mutein Cys78Ser + Cys96Ser (C78,96S) from COS cells. In words: FGF-2 mutein export with ouabain, Cys78Ser + Cys96Ser. It is filed as cell-based.

Molecules are shown by their SMILES.

For `C[C@H]1CCC/C=C/[C@@H]2C[C@H](O)C[C@H]2[C@H](O)/C=C/C(=O)O1` [Brefeldin A], the “effect on FGF-2 export” value in experiment [1] is “no substantial effect”. In addition, in experiment [2], the “sensitivity of hCG-α secretion” value is “brefeldin sensitive”.
As for `C[C@@H]1O[C@@H](O[C@H]2C[C@@H](O)[C@]3(CO)[C@H]4[C@H](O)C[C@]5(C)[C@@H](C6=CC(=O)OC6)CC[C@]5(O)[C@@H]4CC[C@]3(O)C2)[C@H](O)[C@H](O)[C@H]1O` [Ouabain], in [3] (1 mM, FGF-2 only transfected COS cells), the “inhibition of FGF-2 export at 1 mM” value was “completely inhibit”. Moreover, the “inhibition of export of FGF-2” value in [3] is “inhibit”. The IC50 in experiment [3] is about 100 nM. Moreover, the “effect on secretion of hCG-α” value in experiment [4] is “does not affect secretion of hCG-α”. Besides, the “FGF-2 in media at 1 mM” value in experiment [5] was “significant amounts of FGF-2 can be detected in media”. Further, in experiment [6], the “inhibition of IL-1α export” value was “inhibted”. In addition, the “sensitivity of N protein export” value in [7] is on record as “ouabain-resistant”. The “inhibition of export of FPT” value in experiment [8] is given as “can be inhibited”. Further, in experiment [9], the “inhibition of export of F-gal” value was “can be inhibited”. Moreover, the “Effect of Ouabain on Export” value in experiment [10], in [11] (Lys144Val), in experiment [12] (Arg53Trp) and in experiment [14] (Cys78Ser + Cys96Ser) was “decrease” each time. Besides, the “FGF-2 in Cells, 7 hr (+) Ouabain” value in experiment [10] is on record as 79%; in [11] (K144V), 70%; in [12] (R53W), 70%; in experiment [13], 70%; in experiment [14] (C78,96S), 62%. Further, the “FGF-2 in Media, 7 hr (+) Ouabain” value in experiment [10] is 21%; in experiment [11] (K144V), 30%; in experiment [12] (R53W) it was 30%; in experiment [13] it was 30%; in experiment [14] (C78,96S) it was 38%.
Consider `C[C@H]1O[C@@H](O[C@H]2[C@@H](O)C[C@H](O[C@H]3[C@@H](O)C[C@H](O[C@H]4CC[C@@]5(C)[C@H](CC[C@@H]6[C@@H]5C[C@@H](O)[C@]5(C)[C@@H](C7=CC(=O)OC7)CC[C@]65O)C4)O[C@@H]3C)O[C@@H]2C)C[C@H](O)[C@@H]1O` [digoxin], for which, in [3], the “inhibition of export of FGF-2” value is on record as “inhibit” and the IC50 was about 5000 nM.
